US20180369186A1, “METHOD FOR MODULATING AUTOPHAGY AND APPLICATIONS THEREOF” (JAWAHARLAL NEHRU CENTRE FOR ADVANCED SCIENTIFIC RESEARCH, priority 2015, published 2018)

Experiments:
aminopeptidase = test: Protease protection assay with aminopeptidase; format: cell-based, S. cerevisiae; conditions: starvation
Protocol: To elucidate the step of action of Bay11, a protease protection assay is performed using aminopeptidase as a marker, which is also a substrate for starvation-induced autophagy. Untreated cells in presence of proteinase K show both the precursor as well as the matured form due to the autophagosome-sequestered membrane-protected cargo and the cytosolic free form, respectively (FIGS. 22D and 22E). […] Combined treatment with Proteinase K and triton X-100 results in conversion of all the precursor form to the matured form in both treated and untreated groups.

p62, MAP1LC3B-II = test: p62 and MAP1LC3B immunoblotting in Atg5+/+ and Atg5−/− MEFs; format: cell-based, mouse; conditions: 5 μM, 24 h
Protocol: Western blotting is performed using standard methods. Immunoblotting in MEFs is carried out as described previously. Dilutions of primary antibodies used are as follows: Anti-p62 1:1000 (Progen Biotechnik, GP62-C), Anti-MAP1LC3B 1:3000 (Nevus Biologicals, NB100-2220) and Anti-GAPDH (Cell Signalling Technologies, 2118S). Secondary antibodies conjugated to HRP are used at 1:10000 dilution as follows: Anti-Guinea-Pig-HRP (Abeam, ab50210) and Anti-Rabbit-HRP (Calbiochem, 401393).

α-synuclein-EGFP = α-synuclein-EGFP degradation assay in yeast; format: cell-based, S. cerevisiae; conditions: 50 μM
Protocol: Subsequent degradation of α-synuclein-EGFP levels are analyzed using immunoblotting (FIG. 9A).
Yeast cultures after respective treatments are washed, mounted on agarose (2%) pad and imaged. Images are acquired using DeltaVision Elite widefield microscope (API, GE) with following filters: DAPI (390/18 and 435/48), FITC (490/20 and 529/38), TRITC (542/27 and 594/45) and Cy5 (632/22 and 676/34). Images are processed using DV SoftWoRX software. Autophagosome (yellow) and autolysosome (red) are counted using Cell Counter plug-in in imager software (NIH) and graphically represented as fold difference versus untreated (FIGS. 4A, B, C and D).
After inducing α-synuclein-EGFP aggregates in the corresponding yeast strains driven by galactose promoter, the protein expression is turned off by adding dextrose in the medium. Then, α-synuclein-EGFP aggregates degradation by XCT 790 are assessed by collecting cells treated with and without XCT 790 (50 μM) for 0 and 24 h. Subsequently, the protein levels are analyzed using immunoblotting.
The appropriate yeast strains (A600=3) are mixed in trichloroacetic acid (12.5%) and then stored at −80° C. Then, the samples are thawed on ice, centrifuged (16000×g, 15 min) and the pellets are washed twice with ice-cold acetone (80%). Pellets are air dried, resuspended in lysis solution (0.1 N NaOH and 1% SDS) and Laemmli buffer and boiled for 15 min.
After respective treatments, the yeast cultures were washed, seeded on agarose (2%) pad and then imaged.

[1] = tested on: SH-SY5Y cells overexpressing EGFP-α-synuclein; test: Cell viability of SH-SY5Y cells overexpressing α-synuclein (CellTitre-Glo); format: cell-based, human
Protocol: SH-SY5Y cells are seeded on a 96 well plate and transfected with GFP-SNCA only and/or is cotransfected with shRNA GSK3B and GFP-SNCA. To cells, the drugs were added (24 h) after 48 h of transfection. Then, the cell viability was measured using the CellTitre-Glo® (Promega) and luminescence was measured using Varioskan Flash (Thermo Scientific).
SH-SY5Y cells are seeded onto tissue culture treated 96 well plate and then transfected with EGFP-α-synuclein only and/or co-transfected with siRNA. To cells, appropriate drugs are added (24 h) after 48 h of transfection. Using luminescence-based CellTitre-Glo® (Promega) kit, the cell viability is assayed using automated microtitre plate reader Varioskan Flash (Thermo Scientific) […].

HeLa and SH-SY5Y cells = test: Cell viability of HeLa and SH-SY5Y after 72 h (CellTitre Glo); format: cell-based, human; conditions: various concentrations
Protocol: In another embodiment of the present disclosure, FIG. 47 illustration non-toxicity of XCT 790 to cells (Hela and SHSY5Y) and scheme for α-synculein toxicity assay. Cell viability of cell lines like HeLa (a) and SH-SY5Y (b) after 72 h of XCT 790 treatments for various indicated concentrations. Cell viability was assayed using CellTitre Glo (Promega) kit.

[2] = tested on: SH-SY5Y cells (autophagosomes and autolysosomes); test: Tandem RFP-EGFP-LC3 assay in SH-SY5Y cells; format: cell-based, human; conditions: 2 h
Protocol: Sub-confluent HeLa and/or SH-SY5Y cells are seeded into 60 mm cell culture dishes, then transfected with ptf LC3 construct and/or siRNA and allowed to express for 48 h. Cells are trypsinized, seeded again on poly-D-lysine coated cover slips in a 12 or 24 well plates and allowed to attach. After appropriate treatments, the coverslips containing cells are processed for imaging. For immunofluorescent antibody staining, the cover slips are incubated in primary antibody at 4° C. for overnight followed by secondary antibody incubation at room temperature.
For imaging the mammalian cells, after appropriate treatments, coverslips containing cells are fixed using 4% paraformaldehyde (PFA) (Sigma) and then permeabilized using Triton X-100 (0.2%, HiMedia). On slide, coverslips are mounted using antifade, Vectashield mounting medium (Vector laboratories). For antibody staining, coverslips are blocked using 5% BSA for 1 h at room temperature, then incubated with primary antibody at 4° C., overnight and then subsequently probed with corresponding fluorescent dye conjugated secondary antibody.

In the case of `Cc1ccc(S(=O)(=O)/C=C/C#N)cc1` [Bay11, 3-[(4-methylphenyl)sulfonyl]-(2E)-propenenitrile], the “form of aminopeptidase upon proteinase K treatment” value (aminopeptidase) is reported as “only the mature form of aminopeptidase”, the “MAP1LC3B-II levels in Atg5+/+ MEFs” value (p62, MAP1LC3B-II) is reported as “reduces MAP1LC3B-II levels” and the “endogenous p62 levels in Atg5+/+ MEFs” value (p62, MAP1LC3B-II) is reported as “significantly increases endogenous p62 levels”. The “endogenous p62 levels in Atg5−/− MEFs” value (p62, MAP1LC3B-II) was “no significant effect”.

For `O=C1Nc2cc(Br)ccc2/C1=C1/Nc2ccccc2/C1=N\O` [6-Bio, (2′Z,3′E)-6-Bromoindirubin-3′-oxime], the “α-synuclein-EGFP clearance in autophagy mutant atg1Δ” value (α-synuclein-EGFP; atg1Δ) was “not in an autophagy mutant”, the “α-synuclein-EGFP levels in wild type cells” value (α-synuclein-EGFP; non-starvation and starvation, 0, 6, 12 and 24 h) was “time-dependent and significant decrease” and the “cell viability of SNCA over expressed SH-SY5Y cells” value ([1]; SNCA over expressed for 72 h) was “significantly increased”. For the same compound, the “cytoprotection when GSK3B expression is silenced” value ([1]; shRNA GSK3B silenced, SNCA over expressed) was “marginal cytoprotection”.

In the case of `COc1cc(C=C(C#N)C(=O)Nc2nnc(C(F)(F)F)s2)ccc1OCc1ccc(C(F)(F)F)cc1C(F)(F)F` [XCT 790, 3-[4-(2,4-Bis-trifluoromethylbenzyloxy)-3-methoxyphenyl]-2-cyano-N-(5-trifluoromethyl-1,3,4-thiadiazol-2-yl)acrylamide], the toxicity to cells (HeLa and SH-SY5Y cells) is reported as “non-toxicity”, the “autolysosomes, fold vs control” value [2] is reported as ~4 fold and the “autophagosomes, fold vs control” value [2] is reported as ~2 fold. For the same compound, the “clearance of α-synuclein-EGFP in wild-type strain” value (α-synuclein-EGFP; 24 h, untreated vs treated) was ~2.5 fold, the “vacuolar free EGFP (vacuolar degradation of α-synuclein-EGFP)” value (α-synuclein-EGFP; microscopy, WT α-synuclein-EGFP, untreated vs treated) was ~14 fold and the “increase in cell viability, untreated vs treated” value ([1]; α-syn over expressed cells, 5 μM) was ~4 fold. The “cell viability, XCT 790 vs XCT 790+3-MA” value ([1]; α-syn over expressed cells, with 3-MA) was ~4 fold.
